We go through 22 compounds from US12060347B2 (BRISTOL-MYERS SQUIBB COMPANY, priority 2016, dated 2024).

What is called IC50 is the midpoint of a concentration-inhibition curve.

This assay deals with T1, human PAR4 (Homo sapiens, UniProt Q96RI0).
T1 construct: expressed in transfected cells; host or cells: HEK293 PAR4 Clone 1.2A (BMS Arctic ID 383940)
T1 sequence (Q96RI0 18-385): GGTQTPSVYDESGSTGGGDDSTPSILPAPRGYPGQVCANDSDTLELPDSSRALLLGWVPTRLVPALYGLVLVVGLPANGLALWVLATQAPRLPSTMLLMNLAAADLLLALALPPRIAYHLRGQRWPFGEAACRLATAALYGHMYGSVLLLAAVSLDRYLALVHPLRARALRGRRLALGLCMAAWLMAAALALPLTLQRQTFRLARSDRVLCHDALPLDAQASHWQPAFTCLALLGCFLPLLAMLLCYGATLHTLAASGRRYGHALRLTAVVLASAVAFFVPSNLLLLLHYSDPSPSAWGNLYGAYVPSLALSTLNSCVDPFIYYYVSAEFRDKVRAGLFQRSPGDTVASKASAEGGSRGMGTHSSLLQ
In words: PAR4 FLIPR assay: antagonism of agonist-peptide-induced calcium mobilization in PAR4-expressing HEK293 cells. It counts as cell-based. The note with it: H-Ala-Phe(4-F)-[…]NH2-induced intracellular calcium mobilization, 11-point curves. In general terms: A change in cytosolic calcium serves as a functional read-out for many receptors and channels.
As to `COCc1cnc2c(-c3nc4cc(F)c(OC(C)C)cc4s3)cc(C)cc2n1` [Example 329, 5-fluoro-6-isopropoxy-2-(2-(methoxymethyl)-7-methylquinoxalin-5-yl)benzo[d]thiazole], the 50% inhibitory concentration (IC50) came to 1.1 nM.

Turning to `COc1cnc2c(-c3nc4c(Cl)c(F)c(OCCNS(=O)(=O)c5ccccc5)cc4s3)cc(C)cc2n1` [Example 330, N-(2-((4-chloro-5-fluoro-2-(2-methoxy-7-methylquinoxalin-5-yl)benzo[d]thiazol-6-yl)oxy)ethyl)benzenesulfonamide], the IC50 turned out to be 57 nM.

On to `COc1cnc2c(-c3nc4c(Cl)c(F)c(OCCOC(=O)Nc5cccnc5)cc4s3)cc(C)cc2n1` [Example 331, 2-((4-chloro-5-fluoro-2-(2-methoxy-7-methylquinoxalin-5-yl)benzo[d]thiazol-6-yl)oxy)ethyl pyridin-3-ylcarbamate], for which the IC50 worked out at 9.2 nM.

Take `COc1ccc(NC(=O)OCCOc2cc3sc(-c4cc(C)cc5nc(OC)cnc45)nc3c(Cl)c2F)cn1` [Example 332, 2((4-chloro-5-fluoro-2-(2-methoxy-7-methylquinoxalin-5-yl)benzo[d]thiazol-6-yl)oxy)ethyl (6-methoxypyridin-3-yl)carbamate]: the concentration for half-maximal inhibition (IC50) amounted to 2.4 nM.

`COc1cnc2c(-c3nc4c(Cl)c(F)c(OCCOC(=O)Nc5ccc6[nH]c(=O)oc6c5)cc4s3)cc(C)cc2n1` [Example 333, 2((4-chloro-5-fluoro-2-(2-methoxy-7-methylquinoxalin-5-yl)benzo[d]thiazol-6-yl)oxy)ethyl (2-oxo-2,3-dihydrobenzo[d]oxazol-6-yl)carbamate]: the half-inhibitory concentration (IC50) worked out at 1.7 nM.

As to `COc1cnc2c(-c3nc4c(Cl)c(F)c(OCCOC(=O)NCC(F)(F)F)cc4s3)cc(C)cc2n1` [Example 334, 2((4-chloro-5-fluoro-2-(2-methoxy-7-methylquinoxalin-5-yl)benzo[d]thiazol-6-yl)oxy)ethyl (2,2,2-trifluoroethyl)carbamate], the IC50 amounted to 29 nM.

Take `COc1cnc2c(-c3nc4c(Cl)c(F)c(OCCOC(=O)Nc5ccncc5)cc4s3)cc(C)cc2n1` [Example 335, 2((4-chloro-5-fluoro-2-(2-methoxy-7-methylquinoxalin-5-yl)benzo[d]thiazol-6-yl)oxy)ethyl pyridin-4-ylcarbamate]: the half-inhibitory concentration (IC50) stood at 2.5 nM.

As for `COc1cnc2c(-c3nc4c(Cl)c(F)c(OCCOC(=O)Nc5ccnc(C)c5)cc4s3)cc(C)cc2n1` [Example 336, 2((4-chloro-5-fluoro-2-(2-methoxy-7-methylquinoxalin-5-yl)benzo[d]thiazol-6-yl)oxy)ethyl (2-methylpyridin-4-yl)carbamate], the IC50 amounted to 5.5 nM.

Regarding `COc1cnc2c(-c3nc4c(Cl)c(F)c(OCCOC(=O)Nc5cncc(F)c5)cc4s3)cc(C)cc2n1` [Example 337, 2((4-chloro-5-fluoro-2-(2-methoxy-7-methylquinoxalin-5-yl)benzo[d]thiazol-6-yl)oxy)ethyl (5-fluoropyridin-3-yl)carbamate], the IC50 was 0.7 nM.

For the compound `COc1cnc2c(-c3nc4c(Cl)c(F)c(OCCOC(=O)Nc5ccc(-n6cnc(C)n6)nc5)cc4s3)cc(C)cc2n1` [Example 338, 2((4-chloro-5-fluoro-2-(2-methoxy-7-methylquinoxalin-5-yl)benzo[d]thiazol-6-yl)oxy)ethyl (6-(3-methyl-1H-1,2,4-triazol-1-yl)pyridin-3-yl)carbamate], the half-maximal inhibitory concentration (IC50) was determined as 2 nM.

Take `COc1cnc2c(-c3nc4cc(F)c(OCCOC(=O)Nc5cccnc5)cc4s3)cc(C)cc2n1` [Example 339, 2-((5-fluoro-2-(2-methoxy-7-methylquinoxalin-5-yl)benzo[d]thiazol-6-yl)oxy)ethyl pyridin-3-ylcarbamate]: the half-maximal inhibitory concentration (IC50) stood at 1.6 nM.

Consider `COc1cnc2c(-c3nc4cc(F)c(OCCOC(=O)Nc5ccc(F)nc5)cc4s3)cc(C)cc2n1` [Example 340, 2-((5-fluoro-2-(2-methoxy-7-methylquinoxalin-5-yl)benzo[d]thiazol-6-yl)oxy)ethyl (6-fluoropyridin-3-yl)carbamate], for which the IC50 worked out at 1.5 nM.

For `COc1ccc(NC(=O)OCCOc2cc3sc(-c4cc(C)cc5nc(OC)cnc45)nc3cc2F)cn1` [Example 341, 2-((5-fluoro-2-(2-methoxy-7-methylquinoxalin-5-yl)benzo[d]thiazol-6-yl)oxy) ethyl (6-methoxypyridin-3-yl)carbamate], the IC50 is 15 nM.

For `COc1cnc2c(-c3nc4cc(F)c(OCCOC(=O)Nc5ccncc5)cc4s3)cc(C)cc2n1` [Example 342, 2-((5-fluoro-2-(2-methoxy-7-methylquinoxalin-5-yl)benzo[d]thiazol-6-yl)oxy)ethyl pyridin-4-ylcarbamate], the IC50 stood at 11 nM.

For the compound `COc1cnc2c(-c3nc4cc(F)c(OCCOC(=O)Nc5ccc6[nH]c(=O)oc6c5)cc4s3)cc(C)cc2n1` [Example 343, 2-((5-fluoro-2-(2-methoxy-7-methylquinoxalin-5-yl)benzo[d]thiazol-6-yl)oxy)ethyl (2-oxo-2,3-dihydrobenzo[d]oxazol-6-yl)carbamate], the 50% inhibitory concentration (IC50) came to 0.7 nM.

In the case of `COc1cnc2c(-c3nc4cc(F)c(O[C@H](C)COC(=O)Nc5cccnc5)cc4s3)cc(C)cc2n1` [Example 344, (R)-2-((5-fluoro-2-(2-methoxy-7-methylquinoxalin-5-yl)benzo[d]thiazol-6-yl)oxy)propyl pyridin-3-ylcarbamate], the IC50 amounted to 11 nM.

For `COc1cnc2c(-c3nc4cc(F)c(O[C@@H](C)COC(=O)Nc5cccnc5)cc4s3)cc(C)cc2n1` [Example 345, (S)-2-((5-fluoro-2-(2-methoxy-7-methylquinoxalin-5-yl)benzo[d]thiazol-6-yl)oxy)propyl pyridin-3-ylcarbamate], the 50% inhibitory concentration (IC50) is 0.6 nM.

On to `COc1cnc2c(-c3nc4cc(F)c(OC[C@H](C)OC(=O)Nc5cccnc5)cc4s3)cc(C)cc2n1` [Example 346, (S)-1-((5-fluoro-2-(2-methoxy-7-methylquinoxalin-5-yl)benzo[d]thiazol-6-yl)oxy)propan-2-ylpyridin-3-ylcarbamate], for which the IC50 turned out to be 3.7 nM.

Regarding `COc1cnc2c(-c3nc4cc(F)c(OC[C@@H](C)OC(=O)Nc5cccnc5)cc4s3)cc(C)cc2n1` [Example 347, (R)-1-((5-fluoro-2-(2-methoxy-7-methylquinoxalin-5-yl)benzo[d]thiazol-6-yl)oxy)propan-2-yl pyridin-3-ylcarbamate], the IC50 came out at 0.8 nM.

Turning to `COc1cnc2c(-c3nc4cc(F)c(OC[C@@H](C)OC(=O)Nc5ccc(F)nc5)cc4s3)cc(C)cc2n1` [Example 348, (R)-1-((5-fluoro-2-(2-methoxy-7-methylquinoxalin-5-yl)benzo[d]thiazol-6-yl)oxy)propan-2-yl (6-fluoropyridin-3-yl)carbamate], the IC50 worked out at 4.4 nM.

Take `COc1cnc2c(-c3nc4cc(F)c(OC[C@@H](C)OC(=O)Nc5ccncc5)cc4s3)cc(C)cc2n1` [Example 349, (R)-1-((5-fluoro-2-(2-methoxy-7-methylquinoxalin-5-yl)benzo[d]thiazol-6-yl)oxy)propan-2-yl pyridin-4-ylcarbamate]: the half-inhibitory concentration (IC50) stood at 2.7 nM.

In the case of `COc1cnc2c(-c3nc4cc(F)c(OC[C@@H](C)OC(=O)Nc5ccc6[nH]c(=O)oc6c5)cc4s3)cc(C)cc2n1` [Example 350, (R)-1-((5-fluoro-2-(2-methoxy-7-methylquinoxalin-5-yl)benzo[d]thiazol-6-yl)oxy)propan-2-yl (2-oxo-2,3-dihydrobenzo[d]oxazol-6-yl)carbamate], the half-inhibitory concentration (IC50) came to 2.8 nM.
